Data: publication PMC10610105, “Designing and Exploration of the Biological Potentials of Novel Centrosymmetric Heteroleptic Copper(II) Carboxylates” (Pharmaceuticals, 2023)
Converted amounts (≈) assume the structure as drawn.

Columns and labels:
[1] = Hydroxyl radical scavenging assay; conditions: for IC50: hydroxyl radical scavenging, read-out: IC50 (µM) ± SEM; for % Inhibition: hydroxyl radical
Protocol: (§1) DPPH and hydroxyl (•OH) radical scavenging assays based on spectroscopic measurements are simple in vitro methods used to evaluate the antioxidant potential of test compounds. The promising results of these assays could be exploited as preliminary tests in search of drugs with potential anticancer, anti-aging, and anti-inflammatory activities. Within this context, the abilities of the free ligand acid (HL) and synthesized complexes (1 and 2) to scavenge DPPH and hydroxyl radicals were determined in order to evaluate their potential antioxidant ability compared to that of vitamin C as a reference compound.
The hydroxyl radical scavenging activities of the free ligand acid and synthesized complexes (1 and 2) were evaluated according to a reported method. Different concentrations (15, 30, 60, 120, and 240 μM) of the free ligand acid and complexes were mixed with 0.4 M phosphate buffer (pH 6.6) (1000 μL), 0.1% hydrogen peroxide (100 μL), 3.7 mM o-phenanthroline (200 μL), and 7.5 mM ferrous sulfate (100 μL). The mixtures were diluted with distilled water to 3000 μL before incubating for 30 min at room temperature. The absorbance of mixtures was recorded at 510 nm using ascorbic acid as a standard.
The %scavenging was calculated using the following formula: %scavenging=As−Ac/Ab−As×100 where As, Ac, and Ab are the observed absorbance values of the sample, control, and blank, respectively.

[2] = system: SS-DNA (salmon sperm DNA); assay: DNA binding study by viscometry; conditions: SS-DNA 87.72 μM, compound 5–30 μM, Ostwald viscometer
Protocol: The viscosity of the SS-DNA solution (87.72 μM) in the absence and the presence of complexes 1 and 2 (5–30 μM) was measured using an Ostwald viscometer. For accuracy, the readings were made in triplicate for each sample, and then an average flow rate was calculated. Data are presented as (η/ηo)^1/3 vs. binding ratio ® of [complex]/[DNA], where η is the relative viscosity of the complex-DNA adduct, and ηο is the relative viscosity of DNA alone. The relative viscosity values for SS-DNA in the presence (η) and the absence (ηο) of the complexes were calculated using the relation η = (t − to)/to, where t is the observed flow time in seconds.

[3] = DPPH free radical scavenging assay; conditions: for IC50: DPPH radical scavenging, read-out: IC50 (µM) ± SEM; for % Inhibition: DPPH
Protocol: as §1
The in vitro DPPH free radical scavenging activities of the free ligand acid and complexes 1 and 2 were assessed, as per a reported procedure with slight modification in the protocol.
Different concentrations (15, 30, 60, 120, and 240 μM) of the free ligand acid and complexes were mixed with 1000 μL of 255 μM DPPH solution made in ethanol. The mixture solutions were shaken and incubated in the dark for 30 min at room temperature. The absorbance of the solutions was measured at 518 nm using a UV-VIS spectrophotometer. Ascorbic acid of fixed concentration was used as a positive control. The readings were made in triplicate. Percentage inhibition of the test compounds was evaluated by using the formula: %scavenging=Ac−As/Ac×100 where Ac and As are the observed absorbance values of the control and the sample, respectively.

α-amylase = α-amylase enzyme inhibition assay; format: biochemical, Saccharomyces cerevisiae; conditions: for IC50: α-amylase inhibition
Protocol: A reported protocol with slight modification was used to perform the α-amylase enzyme inhibition assay. A stock solution (1 unit/mL) was prepared by dissolving α-amylase solution from Saccharomyces cerevisiae in 50 mM potassium phosphate buffer (pH 6.8), and for the substrate, in the same buffer 20 mM p-nitrophenyl-α-D-glucopyranoside (PNG) was prepared. The assay was conducted in triplicate using 96-well plates. […] For the experiments, each well contained phosphate buffer 65 μL (50 mM, pH 6.8), PNG 25 μL, α-amylase enzyme 5 μL (0.05 U/mL), and test sample 5 μL. The plates were allowed to incubate at 37 °C for 30 min, followed by the addition of 100 μL sodium bicarbonate (0.5 mM) as a stopping agent.
By using a microplate reader (BioTek Elx-800, Winooski, VT, USA), absorbance was recorded at 405 nm. The percent inhibition was calculated using the formula: %Inhibition=Acontrol−Asample/Acontrol × 100 where Acontrol is the control absorbance and Asample is the sample absorbance.

[4] = system: SS-DNA (salmon sperm DNA); assay: DNA binding study by UV-visible absorption spectroscopy; conditions: complex-DNA interaction, calculated
Protocol: UV-visible absorption measurements can be used to monitor changes occurring in λmax values (red or blue shifts) and absorption intensity (hyper- or hypochromism) of either a test compound or DNA as a result of any possible interaction. These changes can be used to find some details about the mode of interaction of metal complexes with DNA [25]. In the present study, absorption titrations were made with a fixed concentration (200 μM) of complexes against varying concentrations (5-30 μM) of SS-DNA. The extent of complex-DNA binding was assessed by calculating intrinsic binding constant (Kb) values using the well-known Benesi-Hildebrand equation [26]. Ao/A-A0=ε[…]+1/Kb[DNA] where Kb is the binding constant, A is the absorbance of complex-DNA adduct, Ao is the absorbance of pure complex solution, [DNA] is the concentration of SS-DNA in mol/L, εH-G is the molar absorption co-efficient of each complex-DNA adduct, and εG is the molar absorption co-efficient of pure complex. […] Ao/A-Ao along the ordinate, as shown in Figure 3B and Figure 4B for complexes 1 and 2, respectively. […] The SS-DNA solution (ε = 6600 M^-1 cm^-1 at 260 nm) concentration was determined via absorption spectroscopy. The complex solutions (200 μM) were made in aqueous DMSO (1:4). […] To eliminate the absorbance of DNA, equivalent SS-DNA solutions were added to the complex and reference solutions. […]

Compound	IC50 [1]	% Inhibition ([1]; dose conc. 15 µM)	% Inhibition ([1]; dose conc. 30 µM)	% Inhibition ([1]; dose conc. 60 µM)	% Inhibition ([1]; dose conc. 120 µM)	% Inhibition ([1]; dose conc. 240 µM)	effect on the relative viscosity of the DNA [2]	IC50 [3]	% Inhibition ([3]; dose conc. 15 µM)	% Inhibition ([3]; dose conc. 30 µM)	% Inhibition ([3]; dose conc. 60 µM)	% Inhibition ([3]; dose conc. 120 µM)	% Inhibition ([3]; dose conc. 240 µM)	% α-Amylase Activity (α-amylase; concentration 31.25 µg/mL)	% α-Amylase Activity (α-amylase; concentration 62.5 µg/mL)	% α-Amylase Activity (α-amylase; concentration 125 µg/mL)	% α-Amylase Activity (α-amylase; concentration 250 µg/mL)	% α-Amylase Activity (α-amylase; concentration 500 µg/mL)	IC50 (α-amylase)	ΔG [4]
Cc1cccnc1.Cc1cccnc1.O=C([O-])Cc1ccc(F)c(F)c1.O=C([O-])Cc1ccc(F)c(F)c1.O=C([O-])Cc1ccc(F)c(F)c1.O=C([O-])Cc1ccc(F)c(F)c1.[Cu+2].[Cu+2] [complex 2, [Cu2(3,4-F2C6H3CH2COO)4(3-CH3py)2]]	308 ± 6.89 µM	0.04%	1.30%	14.50%	25.00%	35.99%	pronounced increase	365 ± 5.31 µM	4.045%	5.150%	14.975%	21.500%	32.550%	5.33%	8.33%	20.46%	38.00%	50.30%	455.32 µg/mL	-7.808 kcal/mol
O=C1O[C@H]([C@@H](O)CO)C(O)=C1O [Vit. C, ascorbic acid, reference compound]	162 ± 12.1 µM	6.78%	10.49%	16.87%	43.87%	70.55%		127 ± 14 µM	7.09%	15.09%	29.98%	58.09%	82.35%							
C[C@H]1O[C@H](O[C@H]2[C@H](O)[C@@H](O)[C@@H](O[C@H]3[C@H](O)[C@@H](O)C(O)O[C@@H]3CO)O[C@@H]2CO)[C@H](O)[C@@H](O)[C@@H]1N[C@H]1C=C(CO)[C@@H](O)[C@H](O)[C@H]1O (stereo partly shown) [Acrabose, acarbose, reference compound]														14.34%	26.42%	46.39%	68.61%	84.33%		
Cc1ccccn1.Cc1ccccn1.O=C([O-])Cc1ccc(F)c(F)c1.O=C([O-])Cc1ccc(F)c(F)c1.O=C([O-])Cc1ccc(F)c(F)c1.O=C([O-])Cc1ccc(F)c(F)c1.[Cu+2].[Cu+2] [complex 1, [Cu2(3,4-F2C6H3CH2COO)4(2-CH3py)2]]	283 ± 7.01 µM	0.05%	10.00%	15.04%	28.32%	39.99%	pronounced increase	214 ± 7.77 µM	8.07%	15.77%	25.39%	39.00%	51.12%	6.03%	7.24%	22.24%	41.12%	51.22%	437.73 µg/mL	-6.979 kcal/mol
O=C(O)Cc1ccc(F)c(F)c1 [HL, 3,4-difluorophenylacetic acid]	1771 ± 1.17 µM	0.009%	1.050%	1.070%	2.770%	6.660%	no effect	1010 ± 1.99 µM	1.09%	3.05%	5.07%	7.77%	12.55%	1.72%	1.9%	9.22%	19.67%	32.95%	728.17 µg/mL (≈ 4.23 mM)	
